Test results from article PMC2635097 (Molecular pharmacology, 2008).
Like-named read-outs stand apart in the source and are kept apart here.

How the values were obtained:
KCa2.2 = conditions: cited from earlier work
KCa2.1 = conditions: ref Hougaard et al., 2007; cited from earlier work
cloned KCa3.1 channels = conditions: cited from earlier work
KCa2.3 = conditions: read-out: EC50 KCa2.3 currents; ref Hougaard et al., 2007; cited from earlier work
KCa2/3 channels = conditions: ref Strøbæk et al., 2004; cited from earlier work
hKCa2.3 = hKCa2.3 (Homo sapiens, UniProt Q9UGI6); test: Whole-cell patch-clamp of KCa2.3 currents; assay type: cell-based
Chain of hKCa2.3 (Q9UGI6 whole entry): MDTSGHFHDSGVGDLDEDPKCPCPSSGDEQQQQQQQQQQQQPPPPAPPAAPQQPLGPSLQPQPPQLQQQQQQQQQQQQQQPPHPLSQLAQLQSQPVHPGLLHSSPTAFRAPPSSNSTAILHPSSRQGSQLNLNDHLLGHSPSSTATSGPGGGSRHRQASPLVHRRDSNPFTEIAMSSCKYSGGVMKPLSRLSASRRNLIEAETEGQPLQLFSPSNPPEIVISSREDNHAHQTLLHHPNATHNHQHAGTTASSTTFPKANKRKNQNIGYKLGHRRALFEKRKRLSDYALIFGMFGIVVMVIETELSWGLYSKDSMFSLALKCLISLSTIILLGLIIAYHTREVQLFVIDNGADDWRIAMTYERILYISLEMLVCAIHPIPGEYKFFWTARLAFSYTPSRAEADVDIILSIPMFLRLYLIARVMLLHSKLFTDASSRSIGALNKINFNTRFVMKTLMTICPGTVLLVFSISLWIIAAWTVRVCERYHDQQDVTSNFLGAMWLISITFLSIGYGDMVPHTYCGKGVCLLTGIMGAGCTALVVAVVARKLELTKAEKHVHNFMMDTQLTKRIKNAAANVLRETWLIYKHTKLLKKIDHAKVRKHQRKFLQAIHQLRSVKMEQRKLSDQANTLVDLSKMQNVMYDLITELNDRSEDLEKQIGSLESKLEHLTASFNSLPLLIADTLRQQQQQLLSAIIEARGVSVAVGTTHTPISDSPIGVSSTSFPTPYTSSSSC

Cc1cc(NC2CCCCC2)nc(-n2nc(C)cc2C)n1 [CyPPA]
EC50 (KCa2.2; read-out: EC50 KCa2.2 currents, ref Hougaard et al., 2007): 14 µM
effect on KCa2.1 (KCa2.1): no effect
effect on KCa3.1 (cloned KCa3.1 channels; ref Hougaard et al., 2007): no effect
EC50 (KCa2.3): 6 µM

CCn1c(=O)[nH]c2cc(Cl)c(Cl)cc21 [DCEBIO, 5,6-dichloro-EBIO]
EC50 (KCa2.2; read-out: EC50 KCa2.2, ref Pedarzani et al., 2001): 27 µM
EC50 (cloned KCa3.1 channels; read-out: EC50 KCa3.1, ref Singh et al., 2001): 0.75 µM

CCn1c(=O)[nH]c2ccccc21 [EBIO, 1-ethylbenzimidazolin-2-one]
EC50 (cloned KCa3.1 channels; read-out: EC50 cloned KCa3.1 channels, ref Wulff et al., 2007): 30 µM

O=C1Nc2c(ccc(Cl)c2Cl)C1=NO [NS309, 6,7-dichloro-1H-indole-2,3-dione 3-oxime]
concentrations activating KCa2 and KCa3.1 channels (KCa2/3 channels): submicromolar concentrations

Cl.c1ccc2c(c1)CCC[C@H]2Nc1nc2ccccc2[nH]1 [NS8593, N-[(1R)-1,2,3,4-tetrahydro-1-naphthalenyl]-1H-benzimidazol-2-amine hydrochloride]
IC50 (hKCa2.3; read-out: IC50 inhibition of KCa2.3 currents, absence of SKA-31): 700 nM
shift of IC50 on KCa2.3 by SKA-31 (hKCa2.3; with versus without SKA-31): roughly 10 fold
